Assay results reported in patent US12447119B2, “Oral care composition” (SUNSTAR AMERICAS, INC., priority 2019, dated 2025).

Test: Solubility of surfactant in an oral care composition (statement in Experiment 4)
Format: physicochemical
Settings: compared with a monoglyceride and diglyceride mixture
Description: The results of Experiment 4 are shown in FIG. 5 (represented by Table 6 below), which measures the toothpaste concentration that causes 50% cell hemolysis. […] Glyceryl monostearate is harder to dissolve in an oral care composition than monoglyceride and digylceride mixtures.

## CCCCCCCCCCCCCCCCCC(=O)OCC(O)CO (stereo not shown) [Glyceryl monostearate, glyceryl monostearate]
  solubility of the surfactant in an oral care composition: less soluble than a monoglyceride and diglyceride mixture
